≈ marks a conversion by molar mass, not a printed value. Read-outs that look alike come from different tables or passages of the source.
Legend:
B. subtilis DSM10 = test: MIC determination (microdilution, M07-A9); type: cell-based; conditions: Bacillus subtilis
Protocol: (§1) MIC values were determined according to the ninth edition of the Approved Standard M07-A9. The test was carried out for six different bacterial strains (E. coli DSM 1116 (Gram-negative), E. coli BW25113 (Gram-negative), B. subtilis DSM 10 (Gram-positive), M. luteus DSM 1790 (Gram-positive), M. phlei DSM 750 (Gram-positive), S. typhimurium TA 100 (Gram-negative). First, 20 µl of glycerol stock of each strain was inoculated in 20 ml LB (Lennox) followed by incubation overnight at 37 °C, 200 r.p.m. The test inoculum was adjusted by the 0.5 McFarland Standard. Within 15 min of preparation, the adjusted inoculum suspension was diluted in MHBII so that each well contained approximately 5 × 10^5 c.f.u. ml^−1 in a final volume of 100 µl. Then, 95 µl of the inoculum was applied per well and 5 µl of the (diluted) albicidins was added. For dilutions, the dry powders were dissolved in dimethylsulfoxide (DMSO) with a concentration of 2.56 mg ml^−1, and the obtained stock solutions were further diluted in DMSO. Next, 5 µl of each antibiotic dilution was applied to the microdilution tray to reach final concentrations of 8 to 0.016 µg ml^−1. One row of each well plate served as a growth control without antibiotic and another row of the microdilution tray served as a sterility control (only MHBII media). The antimicrobial effect of the solvent was tested by adding 5 µl DMSO to several wells. Purity check and cell titre control were performed according to International Standard M07-A9 on Mueller–Hinton II Agar. Both microdilution trays and agar plates were incubated at 37 °C for 20 h.

E. coli BW25113 = test: MIC determination (microdilution, M07-A9); type: cell-based
Protocol: as §1

E. coli DSM116 = test: MIC determination (microdilution, M07-A9); type: cell-based; conditions: Escherichia coli, DSM116, E. coli DSM116, read-out: MIC
Protocol: as §1

M. luteus DSM1790 = test: MIC determination (microdilution, M07-A9); type: cell-based
Protocol: as §1

M. phlei DSM750 = test: MIC determination (microdilution, M07-A9); type: cell-based; conditions: Mycolicibacterium phlei
Protocol: as §1

S. typhimurium TA100 = test: MIC determination (microdilution, M07-A9); type: cell-based
Protocol: as §1

WT E. coli gyrase = target: T1, WT E. coli gyrase (Escherichia coli, UniProt P0AES4+P0AES6); test: biochemical; type: biochemical; conditions: for % maximal cleavage: GyraseWT, average of 3 independent assays; for EC50: Gyrase^WT, mean ± s.d. of triplicate, read-out: CC50 (the source's name)
T1 construct: alternative cryo-EM approach involving full-length E. coli gyrase; 10-His (cleaved yes); Twin-Strep (cleaved yes); made in house
T1 sequence (P0AES4 whole entry, one chain of several): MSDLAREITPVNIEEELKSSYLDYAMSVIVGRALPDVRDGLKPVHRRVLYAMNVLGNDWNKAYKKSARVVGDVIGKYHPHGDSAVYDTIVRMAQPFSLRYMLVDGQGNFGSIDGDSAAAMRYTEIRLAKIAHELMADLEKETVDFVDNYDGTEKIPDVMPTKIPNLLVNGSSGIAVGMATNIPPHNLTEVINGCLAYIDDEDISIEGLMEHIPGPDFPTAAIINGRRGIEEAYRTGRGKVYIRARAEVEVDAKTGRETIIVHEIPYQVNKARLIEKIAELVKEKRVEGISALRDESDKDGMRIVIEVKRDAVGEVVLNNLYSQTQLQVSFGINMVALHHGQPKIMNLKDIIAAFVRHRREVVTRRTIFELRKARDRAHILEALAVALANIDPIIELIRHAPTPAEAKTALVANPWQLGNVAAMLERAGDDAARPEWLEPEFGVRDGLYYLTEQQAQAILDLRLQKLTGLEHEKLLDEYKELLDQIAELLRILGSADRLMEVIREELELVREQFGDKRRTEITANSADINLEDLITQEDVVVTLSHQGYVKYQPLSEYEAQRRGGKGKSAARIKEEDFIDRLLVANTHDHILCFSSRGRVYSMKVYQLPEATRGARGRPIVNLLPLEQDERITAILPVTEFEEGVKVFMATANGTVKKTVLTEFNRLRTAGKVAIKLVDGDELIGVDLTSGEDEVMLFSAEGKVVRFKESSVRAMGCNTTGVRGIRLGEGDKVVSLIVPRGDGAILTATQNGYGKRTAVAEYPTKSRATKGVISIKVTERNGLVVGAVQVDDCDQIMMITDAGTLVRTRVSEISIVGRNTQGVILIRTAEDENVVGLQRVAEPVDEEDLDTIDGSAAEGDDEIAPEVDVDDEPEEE
Protocol: For DNA gyrase supercoiling assays to characterize gyrase mutants, 15 µl reactions were set up containing 250 ng of relaxed DNA, E. coli gyrase supercoiling buffer (35 mM Tris–Cl pH 7.5, 24 mM KCl, 4 mM MgCl2, 2 mM DTT, 1.8 mM spermidine, 1 mM ATP, 6.0% (w/v) glycerol, and 0.1 mg ml^−1 BSA), gyrase subunits and inhibitors. Concentrations of enzyme and inhibitor are stated in the figure legends. Inhibitors were diluted in the following way to reduce the chance of precipitation: stock compound in 100% DMSO was diluted to 5 mM in 100% DMSO. This compound solution was diluted to 1 mM by stepwise addition of 1 µl of 50% DMSO with thorough mixing via pipetting after each addition. All subsequent dilutions up to 100 µM were performed in the same way using H2O. After this point, compounds were stable and could be diluted in the normal way. Reactions were incubated at 37 °C for 30 min before stopping with 15 µl chloroform:isoamyl alcohol (24:1 v/v) and 15 µl of STEB (40% (w/v) sucrose, 100 mM Tris–Cl pH 8, 10 mM EDTA, 0.5 mg ml^−1 bromophenol blue).
Cleavage assays were set up in the same way as supercoiling assays with some modifications. The concentration of enzyme was increased 4-fold relative to the supercoiling assay and reactions were incubated for 1 h before addition of 0.2% SDS and proteinase K (0.2 mg ml^−1) and further incubation at 37 °C for 30 min to trap cleavage complexes. Reactions were stopped in the same way as supercoiling assays.
(§2) Results were visualized by agarose gel electrophoresis: 1% agarose Tris-acetate-EDTA (TAE) gels were run without ethidium bromide (supercoiling) or with 10 µg ml^−1 ethidium bromide (cleavage) at 8 V cm^−1.
DNA cleavage gels were analysed using densitometry (ImageJ). Experiments were carried out in triplicate and expressed as mean ± s.d. Curves were fitted using OriginPro 2021 (Origin Lab) according to a modified Hill equation:1 y=cI+(cF−cI)[…]/(k^n+x^n) where y is the percentage of cleaved DNA, cI is the initial cleavage, cF is the final cleavage, k is the CC50 (the concentration of inhibitor that results in cleavage of 50% of DNA), n is a slope factor and x is the inhibitor concentration.

E. coli Topo IV = E. coli Topo IV (Escherichia coli, UniProt P0AFI2+P20083); test: Topo IV cleavage assay (cleavage complex stabilization); type: biochemical; conditions: for concentration at which a linear DNA band could be observed: Topo IV cleavage complex stabilization, tested 0.1, 1, 10, 100 µM; for stabilization of the cleavage complex with Topo IV: in words
E. coli Topo IV, sequence (P0AFI2 whole entry): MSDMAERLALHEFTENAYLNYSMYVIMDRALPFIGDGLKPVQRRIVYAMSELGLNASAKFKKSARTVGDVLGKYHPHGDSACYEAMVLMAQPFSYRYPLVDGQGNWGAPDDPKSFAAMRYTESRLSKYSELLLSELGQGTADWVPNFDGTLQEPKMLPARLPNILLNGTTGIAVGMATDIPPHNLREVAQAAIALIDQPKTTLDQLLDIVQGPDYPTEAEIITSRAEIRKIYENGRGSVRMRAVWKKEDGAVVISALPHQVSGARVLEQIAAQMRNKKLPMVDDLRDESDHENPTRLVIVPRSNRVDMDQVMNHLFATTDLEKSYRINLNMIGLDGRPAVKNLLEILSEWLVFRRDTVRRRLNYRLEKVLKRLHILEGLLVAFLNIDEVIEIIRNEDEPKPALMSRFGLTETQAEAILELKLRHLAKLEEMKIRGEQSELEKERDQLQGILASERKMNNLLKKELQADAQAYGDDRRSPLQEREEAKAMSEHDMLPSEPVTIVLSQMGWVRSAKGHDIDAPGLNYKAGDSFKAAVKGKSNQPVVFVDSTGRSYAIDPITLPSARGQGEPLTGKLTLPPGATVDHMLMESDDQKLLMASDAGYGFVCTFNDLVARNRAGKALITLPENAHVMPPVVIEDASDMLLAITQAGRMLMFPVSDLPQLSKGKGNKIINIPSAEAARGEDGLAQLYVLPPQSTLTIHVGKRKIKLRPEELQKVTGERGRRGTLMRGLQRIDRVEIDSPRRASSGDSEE
E. coli Topo IV, sequence (P20083 whole entry): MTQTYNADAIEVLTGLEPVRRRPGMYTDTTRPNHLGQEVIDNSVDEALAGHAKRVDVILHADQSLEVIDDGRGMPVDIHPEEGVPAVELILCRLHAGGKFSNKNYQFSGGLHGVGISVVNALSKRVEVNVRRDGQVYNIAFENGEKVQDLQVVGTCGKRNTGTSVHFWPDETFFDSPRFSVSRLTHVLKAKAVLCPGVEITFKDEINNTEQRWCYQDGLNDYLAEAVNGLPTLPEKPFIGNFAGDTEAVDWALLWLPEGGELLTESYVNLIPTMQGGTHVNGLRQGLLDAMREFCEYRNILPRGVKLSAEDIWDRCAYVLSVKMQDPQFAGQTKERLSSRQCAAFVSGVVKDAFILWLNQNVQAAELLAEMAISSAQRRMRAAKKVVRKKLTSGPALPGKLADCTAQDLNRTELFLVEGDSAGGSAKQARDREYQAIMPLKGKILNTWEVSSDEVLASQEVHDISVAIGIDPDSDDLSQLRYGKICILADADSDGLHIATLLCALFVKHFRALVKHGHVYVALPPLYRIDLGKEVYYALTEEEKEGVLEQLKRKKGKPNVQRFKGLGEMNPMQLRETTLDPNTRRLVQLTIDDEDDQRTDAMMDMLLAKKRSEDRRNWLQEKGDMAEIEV
Protocol: Topo IV cleavage assays were set up in the same way as relaxation assays with some modifications. The concentration of enzyme was increased by 20% and cleavage complexes were trapped by the addition of 0.2% SDS and proteinase K (0.2 mg ml^−1) and further incubation at 37 °C for 30 min. Reactions were stopped in the same way as supercoiling assays.
as §2
Supplementary Figure 11. Activity of albicidin and Albi-1/2/3 on E. coli […]
Cleavage activity of E. coli topo IV in the presence of albicidin, Albi-1, Albi-2 and Albi-3. First lane: negatively supercoiled pBR322; second lane: innate cleavage activity of E. coli topo IV (15 nM); third lane: effect of 20 µM CFX; subsequent lanes: effect of increasing compound concentration (0.1, 1, 10, 100 µM). […]
concentration. All experiments were carried out in triplicates and representative gels […]
(1 picture or pasted object on this page, not shown here)

[1] = first value in cell (biological replicate)
[2] = second value in cell (biological replicate)
[3] = E. coli BW25113, second value in cell (biological replicate)
[4] = Escherichia coli, E. coli BW25113, first value in cell (biological replicate), read-out: MIC
[5] = Micrococcus luteus, first value in cell (biological replicate), read-out: MIC
[6] = Salmonella enterica, first value in cell (biological replicate), read-out: MIC
[7] = Escherichia coli, BW25113, E. coli strain not named, read-out: MIC for E. coli

SMILES | MIC (B. subtilis DSM10; [1]) | MIC (B. subtilis DSM10; [2]) | MIC (E. coli BW25113; [3]) | MIC (E. coli BW25113; [4]) | MIC (E. coli DSM116; [1]) | MIC (E. coli DSM116; [2]) | MIC (M. luteus DSM1790; [5]) | MIC (M. luteus DSM1790; [2]) | MIC (M. phlei DSM750; [1]) | MIC (M. phlei DSM750; [2]) | MIC (S. typhimurium TA100; [6]) | % maximal cleavage (WT E. coli gyrase) | EC50 (WT E. coli gyrase) | concentration at which a linear DNA band could be observed (E. coli Topo IV) | stabilization of the cleavage complex with Topo IV (E. coli Topo IV) | MIC (E. coli BW25113; [7]) | MIC (S. typhimurium TA100; [2]) | also measured
COc1c(NC(=O)c2ccc(NC(=O)c3ccc(NC(=O)[C@H](CC#N)NC(=O)c4ccc(NC(=O)/C(C)=C/c5ccc(O)cc5)cc4)cc3)c(OC)c2O)ccc(C(=O)O)c1O [Albicidin] | < 0.25 µg/mL | 0.25 µg/mL (≈ 0.297 µM) | 0.063 µg/mL (≈ 0.0747 µM) | 0.063 µg/mL (≈ 0.0747 µM) | 0.063 µg/mL (≈ 0.0747 µM) | 0.063 µg/mL (≈ 0.0747 µM) | 1 µg/mL (≈ 1.19 µM) | 1.0 µg/mL (≈ 1.19 µM) | 2 µg/mL (≈ 2.37 µM) | 2 µg/mL (≈ 2.37 µM) | 0.063 µg/mL (≈ 0.0747 µM) | 81±2% | 46 ± 3.7 nM | 10 µM | could stabilize the cleavage complex | – | – | % cleaved DNA Average (WT E. coli gyrase; albicidin 0.0005 µM, average of replicates): 3.748%; % cleaved DNA Average (WT E. coli gyrase; albicidin 0.0025 µM, average of replicates): 5.277%; % cleaved DNA Average (WT E. coli gyrase; albicidin 0.005 µM, average of replicates): 6.761%; % cleaved DNA Average (WT E. coli gyrase; albicidin 0.01 µM, average of replicates): 11.8941%; % cleaved DNA Average (WT E. coli gyrase; albicidin 0.025 µM, average of replicates): 24.028%; % cleaved DNA Average (WT E. coli gyrase; albicidin 0.05 µM, average of replicates): 56.851%; % cleaved DNA Average (WT E. coli gyrase; albicidin 0.1 µM, average of replicates): 62.7758%; % cleaved DNA Average (WT E. coli gyrase; albicidin 0.25 µM, average of replicates): 75.7465%; % cleaved DNA Average (WT E. coli gyrase; albicidin 0.5 µM, average of replicates): 79.6286%; % cleaved DNA Average (WT E. coli gyrase; albicidin 1 µM, average of replicates): 76.3016%; % cleaved DNA Average (WT E. coli gyrase; albicidin 10 µM, average of replicates): 81.3635%
CC(C)Oc1c(NC(=O)c2ccc(NC(=O)[C@H](Cc3c[nH]nn3)NC(=O)c3ccc(NC(=O)c4ccc(C#N)cc4)cn3)cn2)ccc(C(=O)Nc2ccc(C(=O)O)cc2)c1O [Albi-1] | 0.031 µg/mL (≈ 0.037 µM) | 0.063 µg/mL (≈ 0.0752 µM) | <0.016 <0.016 µg ml^−1 | < 0.016 µg/mL | 0.031 µg/mL (≈ 0.037 µM) | 0.031 µg/mL (≈ 0.037 µM) | < 0.016 µg/mL | <0.016 <0.016 µg ml^−1 | 0.25 µg/mL (≈ 0.298 µM) | 0.5 µg/mL (≈ 0.597 µM) | < 0.016 µg/mL | 73±6% | 8 ± 2.7 nM | 1 µM | could stabilize the cleavage complex | ≤ 0.016 µg/mL | <0.016 <0.016 µg ml^−1 | –
COc1c(NC(=O)c2ccc(NC(=O)c3ccc(NC(=O)[C@H](Cc4c[nH]nn4)NC(=O)c4ccc(NC(=O)c5ccc6nc(C)ccc6c5)cc4)cn3)c(OC)c2O)ccc(C(=O)O)c1O [Albi-3] | 0.063 µg/mL (≈ 0.0704 µM) | 0.125 µg/mL (≈ 0.14 µM) | <0.016 <0.016 µg ml^−1 | < 0.016 µg/mL | < 0.016 µg/mL | < 0.016 µg/mL | 0.063 µg/mL (≈ 0.0704 µM) | 0.063 µg/mL (≈ 0.0704 µM) | 0.5 µg/mL (≈ 0.559 µM) | 1 µg/mL (≈ 1.12 µM) | < 0.016 µg/mL | 66±4% | 25 ± 5.3 nM | – | could stabilize the cleavage complex | < 0.016 µg/mL | <0.016 <0.016 µg ml^−1 | % cleaved DNA Average (WT E. coli gyrase; Albi-3 0.001 µM, WT Gyrase): 5.372%; % cleaved DNA Average (WT E. coli gyrase; Albi-3 0.005 µM, WT Gyrase): 11.5375%; % cleaved DNA Average (WT E. coli gyrase; Albi-3 0.01 µM, WT Gyrase): 23.6152%; % cleaved DNA Average (WT E. coli gyrase; Albi-3 0.05 µM, WT Gyrase): 37.3347%; % cleaved DNA Average (WT E. coli gyrase; Albi-3 0.1 µM, WT Gyrase): 57.4394%; % cleaved DNA Average (WT E. coli gyrase; Albi-3 0.5 µM, WT Gyrase): 62.8438%; % cleaved DNA Average (WT E. coli gyrase; Albi-3 1 µM, WT Gyrase): 66.0682%; % cleaved DNA Average (WT E. coli gyrase; Albi-3 5 µM, WT Gyrase): 61.2004%; % cleaved DNA Average (WT E. coli gyrase; Albi-3 10 µM, WT Gyrase): 61.7202%
COc1c(NC(=O)c2ccc(NC(=O)c3ccc(NC(=O)[C@H](Cc4c[nH]nn4)NC(=O)c4ccc(NC(=O)c5ccc6cc(O)ccc6c5)cc4)cn3)c(OCCN)c2O)ccc(C(=O)O)c1O [Albi-2] | > 8 µg/mL | > 8 µg/mL | 4.0 µg/mL (≈ 4.32 µM) | 4 µg/mL (≈ 4.32 µM) | 2 µg/mL (≈ 2.16 µM) | 4 µg/mL (≈ 4.32 µM) | > 8 µg/mL | >8.0 >8.0 µg ml^−1 | > 8 µg/mL | > 8 µg/mL | 0.5 µg/mL (≈ 0.541 µM) | 78±2% | – | – | – | 4 µg/mL (≈ 4.32 µM) | 0.5 µg/mL (≈ 0.541 µM) | increase in MIC for E. coli compared with the parent compound (E. coli BW25113; vs albicidin): 60 fold

Source: article PMC9886550, “Molecular mechanism of topoisomerase poisoning by the peptide antibiotic albicidin” (Nature Catalysis, 2023)
